These results are taken from ChEMBL document CHEMBL1133772, “In vitro and in vivo evaluation of dihydropyrimidinone C-5 amides as potent and selective alpha(1A) receptor antagonists for the treatment of benign prostatic hyperplasia” (J Med Chem, 2000).

pKi: −log10 of the molar value.

Data set [1] has as its target T1, Alpha-1D adrenergic receptor (Homo sapiens, UniProt P25100).
T1 sequence (P25100 whole entry): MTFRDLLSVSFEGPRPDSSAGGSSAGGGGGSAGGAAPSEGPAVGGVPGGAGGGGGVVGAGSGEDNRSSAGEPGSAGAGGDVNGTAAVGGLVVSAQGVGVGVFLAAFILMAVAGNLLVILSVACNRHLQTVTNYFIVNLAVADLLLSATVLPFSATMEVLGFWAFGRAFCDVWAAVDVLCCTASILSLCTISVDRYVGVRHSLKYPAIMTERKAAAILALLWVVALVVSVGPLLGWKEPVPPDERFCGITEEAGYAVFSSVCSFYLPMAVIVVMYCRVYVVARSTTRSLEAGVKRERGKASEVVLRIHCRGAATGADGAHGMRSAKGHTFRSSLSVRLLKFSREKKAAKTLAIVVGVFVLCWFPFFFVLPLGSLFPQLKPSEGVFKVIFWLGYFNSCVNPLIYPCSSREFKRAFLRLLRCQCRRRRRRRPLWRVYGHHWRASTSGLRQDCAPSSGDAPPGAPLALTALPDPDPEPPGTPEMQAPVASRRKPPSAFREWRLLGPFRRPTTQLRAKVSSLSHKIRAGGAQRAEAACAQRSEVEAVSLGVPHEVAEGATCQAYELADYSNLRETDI
Briefly: Evaluated for the ability to displace [125I]- HEAT from human cloned Alpha-1D adrenergic receptor stably expressed in HEK cells. In kind it is cell-based, HEK293.

For data set [2], the target named is T2, Alpha-1A adrenergic receptor (Homo sapiens, UniProt P35348).
T2 sequence (P35348 whole entry): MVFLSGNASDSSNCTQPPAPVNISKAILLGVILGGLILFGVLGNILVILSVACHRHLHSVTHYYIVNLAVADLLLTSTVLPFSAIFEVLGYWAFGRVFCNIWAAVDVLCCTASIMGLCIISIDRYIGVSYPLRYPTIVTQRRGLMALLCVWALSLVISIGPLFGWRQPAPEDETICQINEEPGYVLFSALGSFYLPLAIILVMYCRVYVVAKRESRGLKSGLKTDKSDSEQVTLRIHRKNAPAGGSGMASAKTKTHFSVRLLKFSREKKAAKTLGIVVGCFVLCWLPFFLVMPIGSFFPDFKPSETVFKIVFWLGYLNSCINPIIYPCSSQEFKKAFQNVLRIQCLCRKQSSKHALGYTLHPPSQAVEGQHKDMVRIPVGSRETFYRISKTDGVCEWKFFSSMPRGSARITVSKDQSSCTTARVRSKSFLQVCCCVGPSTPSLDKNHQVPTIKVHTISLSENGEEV
Briefly: Evaluated for the ability to displace [125I]- HEAT from human cloned Alpha-1A adrenergic receptor stably expressed in CHO cells. Format: cell-based.

The target in data set [3] is T3, Alpha-1B adrenergic receptor (Homo sapiens, UniProt P35368).
T3 sequence (P35368 whole entry): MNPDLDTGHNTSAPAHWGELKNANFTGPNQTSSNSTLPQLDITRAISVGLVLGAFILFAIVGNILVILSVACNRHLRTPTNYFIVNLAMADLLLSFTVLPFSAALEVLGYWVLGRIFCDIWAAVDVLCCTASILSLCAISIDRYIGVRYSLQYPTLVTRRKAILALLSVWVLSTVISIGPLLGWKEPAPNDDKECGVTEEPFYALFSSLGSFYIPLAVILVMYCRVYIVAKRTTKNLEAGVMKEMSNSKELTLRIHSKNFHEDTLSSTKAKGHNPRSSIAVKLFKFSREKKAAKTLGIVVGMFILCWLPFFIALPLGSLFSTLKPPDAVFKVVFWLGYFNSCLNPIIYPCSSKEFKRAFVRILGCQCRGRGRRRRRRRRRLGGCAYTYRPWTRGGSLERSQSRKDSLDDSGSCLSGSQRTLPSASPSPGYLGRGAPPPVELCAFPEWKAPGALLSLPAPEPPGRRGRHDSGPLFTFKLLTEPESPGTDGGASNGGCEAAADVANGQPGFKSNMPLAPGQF
Briefly: Evaluated for the ability to displace [125I]- HEAT from human cloned Alpha-1B adrenergic receptor stably expressed in LM cells. Format: cell-based.

Data set [4] has as its target T1, Alpha-1D adrenergic receptor. As to the kind of experiment: Ability to displace [125I]- HEAT from human cloned Alpha-1D adrenergic receptor stably expressed in HEK cells. In kind it is cell-based, HEK293.
Data set [5] is described as follows: Bioavailability in rat. The settings on record: in vivo. Format: ADME, organism-based.
Data set [6] is filed under the species Rattus norvegicus. Briefly: Evaluated for the inhibition of A61603-induced prostate contraction in rat. In kind it is functional, Prostate gland.
The species named for data set [7] is Rattus norvegicus. As to the kind of experiment: Duration of action with repeated challenges of A61603 agonist in rat. Note: test concentration or dose not given here. Format: functional.
A short description of data set [8]: t1/2 in rat. In kind it is ADME, organism-based. The settings on record: in vivo.
The target in data set [9] is T3, Alpha-1B adrenergic receptor. As to the kind of experiment: Ability to displace [125I]- HEAT from human cloned Alpha-1B adrenergic receptor stably expressed in LM cells. In kind it is cell-based.
Data set [10] addresses T2, Alpha-1A adrenergic receptor. Briefly: Ability to displace [125I]- HEAT from human cloned Alpha-1A adrenergic receptor stably expressed in CHO cells. Format: cell-based.

On to `N#Cc1ccccc1C1CCN(CCCNC(=O)C2=C(C(F)(F)F)NC(=O)N[C@@H]2c2ccc(F)c(F)c2)CC1`, for which the values for the pKi in data set [1], in data set [2] and in data set [3] were 6.66, 7.70 and 6.15, respectively.

For `O=C1NC(C(F)(F)F)=C(C(=O)NCCCN2CCC(c3ccccn3)CC2)[C@@H](c2ccc(F)c(F)c2)N1`, the pKi in data set [1] was less than 5.30; in data set [2] it was 6.30; in data set [3], less than 5.70.

On to `O=C1NC=C(C(=O)NCCCN2CCC(c3ccccn3)CC2)[C@@H](c2ccc(F)c(F)c2)N1`, for which the results for the pKi in data set [1], in [2] and in [3] were less than 5.52, 8.60 and 5.73, respectively.

Turning to `CC1=C(C(=O)NCCCN2CCC(c3ccc(F)cc3)CC2)[C@@H](c2ccc(F)c(F)c2)N(C)C(=O)N1`, the pKi in data set [1] was 6.92; in [2] it was 9.85; in [3], 8.32.

In the case of `CC1=C(C(=O)NCCCN2CCC(c3ccc(F)cc3)CC2)[C@H](c2ccc(F)c(F)c2)NC(=O)N1C`, the pKi in data set [4] was 6.22; in data set [2], 7.70; in data set [3], 6.96.

In data set [5], `N#CC1(c2ccc(F)cc2)CCN(CCCNC(=O)C2=CNC(=O)N[C@@H]2c2ccc(F)c(F)c2)CC1` displayed a bioavailability of 0%. The pKi in data set [1] is 6.09; in data set [2], 9.77; in data set [3], 6.85. Further, in data set [6], the AD50 came to 7 µg/kg. Also, in data set [7], the Duration was determined as 0.75 h. In data set [8], this compound yielded a half-life of 140 min.

In data set [5], `CC1=C(C(=O)NCCCN2CCC(C#N)(c3ccc(F)cc3C#N)CC2)[C@@H](c2ccc(F)c(F)c2)NC(=O)N1C` registered a bioavailability of 0%. Also, the negative-log Ki (pKi) was less than 5.40 in [1], 9.22 in data set [2] and less than 5.70 in [3]. In addition, in [6], the AD50 was determined as 5 µg/kg. This compound showed a Duration in [7] of 1 h. This compound also returned a half-life in data set [8] of 24 min.

In [5], `COCC1=C(C(=O)NCCCN2CCC(c3ccc(F)cc3C#N)CC2)[C@@H](c2ccc(F)c(F)c2)NC(=O)N1` came in with a bioavailability of less than 6%. Moreover, the negative-log Ki (pKi) is 6.59 in [1], 9.85 in data set [2] and 7.46 in data set [3]. The AD50 in [6] was determined as 2.8 µg/kg. Further, the Duration in data set [7] stood at 1.5 h. In data set [8], this compound showed a half-life of 175 min.

For `CC(=O)N1C(=O)N(C)C(C)=C(C(=O)NCCCN2CCC(c3ccc(F)cc3)CC2)[C@H]1c1ccc(F)c(F)c1`, the figures for the pKi in data set [1], in data set [2] and in data set [3] were 6.64, 8.66 and 7.48, respectively.

Compound `O=C1NC=C(C(=O)NCCCN2CCC(O)(c3ccc(F)cc3)CC2)[C@@H](c2ccc(F)c(F)c2)N1` came in with a bioavailability in [5] of 0%. Besides, the results for the pKi in data set [1], in [2] and in data set [3] were 6.06, 9.04 and 6.80, respectively. Also, in [6], the AD50 amounted to 1.2 µg/kg. This compound also registered a Duration in data set [7] of 0.5 h. The half-life in data set [8] came to 37 min.

The compound `CN1C=C(C(=O)NCCCN2CCC(C#N)(c3ccc(F)cc3C#N)CC2)[C@@H](c2ccc(F)c(F)c2)N(C)C1=O` displayed a bioavailability in data set [5] of less than 6%. Moreover, the negative logarithm of the Ki (pKi) is 6.60 in data set [1], 9.52 in data set [2] and 7.14 in [3]. This compound also came in with an AD50 in data set [6] of 13 µg/kg. The compound also came in with a Duration in data set [7] of 3 h. The same compound gave a half-life in data set [8] of 15 min.

`COCC1=C(C(=O)NCCCN2CCC(c3ccccc3C#N)CC2)[C@@H](c2ccc(F)c(F)c2)NC(=O)N1` registered a bioavailability in data set [5] of less than 6%. In addition, the pKi was 6.55 in [1], 9.38 in data set [2] and 6.55 in data set [3]. This compound also showed an AD50 in [6] of 7 µg/kg. The compound also gave a Duration in data set [7] of 0.6 h. For the same compound, the half-life in data set [8] worked out at 108 min.

Compound `CN1C=C(C(=O)NCCCN2CCC(c3ccc(F)cc3C#N)CC2)[C@@H](c2ccc(F)c(F)c2)NC1=O` displayed a bioavailability in data set [5] of 0%. The pKi in data set [1] is 7.16; in data set [2], 10.17; in [3] it was 8.10. Also, the AD50 in data set [6] was found to be 5 µg/kg. The Duration in data set [7] turned out to be 4 h. In addition, the half-life in data set [8] was 48 min.

`N#Cc1cc(F)ccc1C1CCN(CCCNC(=O)C2=C(C(F)(F)F)NC(=O)N[C@@H]2c2ccc(F)c(F)c2)CC1`: the pKi in data set [1] was 6.57; in [2], 8.38; in [3], 6.70.

Consider `COC(=O)N1C(=O)N(C)C(C)=C(C(=O)NCCCN2CCC(c3ccc(F)cc3)CC2)[C@H]1c1ccc(F)c(F)c1`, for which the pKi in [1] is 6.77; in [2], 9.12; in [3] it was 7.60.

Consider `CC1=C(C(=O)NCCCN2CCC(c3ccccn3)CC2)[C@@H](c2ccc(F)c(F)c2)NC(=O)N1`, for which the bioavailability in [5] worked out at 0%. The pKi is less than 5.30 in data set [1], 8.59 in data set [2] and less than 5.70 in data set [3]. In data set [6], this compound had an AD50 of 2.3 µg/kg. Besides, the Duration in data set [7] amounted to 0.5 h. Also, the half-life in data set [8] worked out at 42 min.

Take `CC1=C(C(=O)NCCCN2CCC(c3ccc(F)cc3)CC2)[C@H](c2ccc(F)c(F)c2)N(C)C(=O)N1C`: the pKi in [4] is 6.39; in data set [9], 7.07; in [10] it was 7.96.

`CN1C=C(C(=O)NCCCN2CCC(C#N)(c3ccc(F)cc3C#N)CC2)[C@@H](c2ccc(F)c(F)c2)NC1=O` registered a bioavailability in data set [5] of 0%. For the same compound, the negative logarithm of the Ki (pKi) is 6.20 in data set [1], 9.74 in data set [2] and 6.36 in data set [3]. The same compound displayed an AD50 in data set [6] of 4 µg/kg. The Duration in data set [7] stood at 3.5 h. In data set [8], this compound came in with a half-life of less than 60 min.

`CC1=C(C(=O)NCCCN2CCC(C#N)(c3ccc(F)cc3)CC2)[C@@H](c2ccc(F)c(F)c2)NC(=O)N1C` showed a bioavailability in data set [5] of less than 6%. In addition, the negative logarithm of the Ki (pKi) in data set [1] is 5.66; in [2], 9.41; in [3] it was 5.96. Also, in [6], the AD50 was 21 µg/kg. In addition, the Duration in data set [7] came to 1.5 h. In addition, in data set [8], the half-life came to 45 min.

As for `N#Cc1cc(F)ccc1C1CCN(CCCNC(=O)C2=CNC(=O)N[C@@H]2c2ccc(F)c(F)c2)CC1`, in data set [5], the bioavailability came to 0%. The negative logarithm of the Ki (pKi) in [1] is 7.21; in [2] it was 10.15; in [3] it was 7.59. In data set [6], this compound displayed an AD50 of 1.8 µg/kg. This compound gave a Duration in data set [7] of 2 h. This compound also showed a half-life in [8] of 174 min.

As for `N#Cc1ccccc1C1CCN(CCCNC(=O)C2=CNC(=O)N[C@@H]2c2ccc(F)c(F)c2)CC1`, the bioavailability in data set [5] was 0%. Further, the pKi in data set [1] is 6.80; in data set [2], 9.89; in [3], 6.54. In data set [6], this compound displayed an AD50 of 1.5 µg/kg. The same compound yielded a Duration in data set [7] of 0.5 h. The compound also showed a half-life in [8] of 43 min.

On to `O=C1NC(C(F)(F)F)=C(C(=O)NCCCN2CCC(c3ccc(F)cc3)CC2)[C@@H](c2ccc(F)c(F)c2)N1`, for which the pKi is 5.92 in data set [1], 6.57 in [3] and 7.72 in data set [10].

Compound `N#Cc1ccccc1C1(C#N)CCN(CCCNC(=O)C2=CNC(=O)N[C@@H]2c2ccc(F)c(F)c2)CC1` gave a bioavailability in data set [5] of 0%. The pKi in [1] is 5.62; in data set [2], 9.80; in data set [3], 6.01. The same compound showed an AD50 in [6] of 3 µg/kg. Besides, the Duration in data set [7] turned out to be 1 h. The compound also came in with a half-life in data set [8] of 45 min.
